These results are taken from patent publication US8268531B2, “Photoacid generator compounds and compositions” (Cornell Research Foundation, Inc., priority 2008, dated 2012).

The nature of the first series: Thermal properties (Td). Format: physicochemical. The settings on record: thermal property of the PAG.
`O=S(=O)(O)C(F)(F)C(F)(F)CCCl`: the Td was 205 °C.

`O=S(=O)(O)C(F)(F)C(F)(F)Oc1ccccc1`: the Td was 190 °C.

`O=S(=O)(O)C(F)(F)C(F)(F)OC(F)(F)C(F)(F)C1CC2CCC1C2` (centres unmarked): the Td worked out at 164 °C.

The compound `O=C1CCC(CC(F)(F)C(F)(F)OC(F)(F)C(F)(F)S(=O)(=O)O)O1` (centres unmarked) came in with a Td of 165 °C.

A short description of another series: Optical properties: absorptivity at 248 nm in acetonitrile. The settings on record: Measured in acetonitrile. It is filed as physicochemical.
The compound `O=S(=O)(O)C(F)(F)C(F)(F)Oc1ccccc1` returned a ε248 of 6015 cm^2 · mol^-1.

Consider `O=S(=O)(O)C(F)(F)C(F)(F)OC(F)(F)C(F)(F)C1CC2CCC1C2` (centres unmarked), for which the ε248 was 5220 cm^2 · mol^-1.

`O=C1CCC(CC(F)(F)C(F)(F)OC(F)(F)C(F)(F)S(=O)(=O)O)O1` (centres unmarked) showed a ε248 of 5400 cm^2 · mol^-1.

As for `O=S(=O)(O)C(F)(F)C(F)(F)C(F)(F)C(F)(F)F`, the ε248 turned out to be 4200 cm^2 · mol^-1.
